EC50, CC50 and SI data for 6 molecules are collected here from ChEMBL document CHEMBL1130360, “3-[(3-Hydroxymethyl)-4-hydroxybutyl]imidazo[4,5-b]pyridinesnovel antiviral agents” (Bioorg Med Chem Lett, 1997).

The test system of one experiment is Human betaherpesvirus 5. The experiment in a line: The compound was tested for the cytomegalovirus; Effective concentration required to inhibit 50% virus proliferation. It is filed as functional, organism-based.
Experiment [1] concerns Human alphaherpesvirus 2. Nature of the experiment: (§1) The compound was tested for the cytopathic effect inhibition against herpes simplex virus 2; Effective concentration required to inhibit 50% virus proliferation. Type of experiment: functional, organism-based.
In experiment [2] the test system is Human alphaherpesvirus 2. Nature of the experiment: The compound was tested for the viral plaque reduction against herpes simplex virus 2; Effective concentration required to inhibit 50% virus proliferation. Type of experiment: functional, organism-based.
Experiment [3] has as its system Human alphaherpesvirus 3. The experiment is described as §1.
Experiment [4] concerns Human alphaherpesvirus 1. Nature of the experiment: The compound was tested for the cytopathic effect inhibition against herpes simplex virus 1; Effective concentration required to inhibit 50% virus proliferation. It is filed as functional, organism-based. (In general: Protection from cytopathic effect is a common read-out in antiviral testing.)
The test system of experiment [5] is HEL. The experiment in a line: Cytotoxicity of compound against herpes simplex virus-2 infected human embryonic lung cells. It is filed as functional.
Experiment [6] concerns HEL. The experiment in a line: Cytotoxicity of compound against human cytomegalo virus infected human embryonic lung cells. Type of experiment: functional.
For experiment [7], the system named is HEL. The experiment in a line: Cytotoxicity of compound against varicella zoster virus infected human embryonic lung cells. It is filed as functional.
The subject of experiment [8] is HEL. Nature of the experiment: The compound was tested for the viral plaque reduction against herpes simplex virus 2; Cytotoxicity concentration required to reduce 50% human embryonic lung cells. It is filed as functional.
Experiment [9] can be described thus: Selectivity is determined by CC50/EC50 of cytopathic effect inhibition against herpes simplex virus 1. Type of experiment: functional.
Experiment [10] is described as follows: Selectivity is determined by CC50/EC50 of cytopathic effect inhibition against herpes simplex virus 2. Type of experiment: functional.
Experiment [11] in a line: Selectivity is determined by CC50/EC50 of cytomegalovirus. Type of experiment: functional.
Experiment [12] in a line: Selectivity is determined by CC50/EC50 of viral plaque reduction against herpes simplex virus 1. Type of experiment: functional.
The test system of experiment [13] is Human alphaherpesvirus 1. The experiment in a line: The compound was tested for the viral plaque reduction against herpes simplex virus 1; Effective concentration required to inhibit 50% virus proliferation. It is filed as functional, organism-based.
A short description of experiment [14]: Selectivity is determined by CC50/EC50 of viral plaque reduction against herpes simplex virus 2. It is filed as functional.
The test system of experiment [15] is HEL. Nature of the experiment: Cytotoxicity of compound against herpes simplex virus 1 infected human embryonic lung cells. It is filed as functional.
Experiment [16] has as its system Human alphaherpesvirus 3. The experiment in a line: The compound was tested for the viral plaque reduction against VZV virus; Effective concentration required to inhibit 50% virus proliferation. It is filed as functional, organism-based.
Experiment [17] can be described thus: Selectivity is determined by CC50/EC50 of VZV virus. Type of experiment: functional.

Structures are written as SMILES. Converted amounts (≈) assume the structure as drawn. Bounds are passed on as bounds.

In general, EC50 refers to the concentration at which the effect is half-maximal. Molecule `Nc1nc2c(ncn2COC(CO)CO)c(=O)[nH]1` [GANCICLOVIR] yielded an EC50 in the experiment with Human betaherpesvirus 5 of 0.1 µg/mL (≈ 0.392 µM).
Consider `Nc1nc2c(ncn2COCCO)c(=O)[nH]1` [ACYCLOVIR], for which the values for the EC50 in the experiment with Human alphaherpesvirus 2 [1], in the experiment with Human alphaherpesvirus 2 [2] and with Human alphaherpesvirus 3 [3] were 0.2 µg/mL (≈ 0.888 µM), 1.1 µg/mL (≈ 4.88 µM) and 0.6 µg/mL (≈ 2.66 µM), respectively.
Usually CC50 stands for the concentration that lowers cell viability or growth by half. Regarding `Nc1nc2c(cc1Cl)nc(C(F)(F)F)n2CCC(CO)CO`, the EC50 in the experiment on Human alphaherpesvirus 1 [4] is 1.2 µg/mL (≈ 3.54 µM); in the experiment on Human alphaherpesvirus 2 [1], above 100 µg/mL; in the experiment with Human alphaherpesvirus 2 [2], above 100 µg/mL; with Human betaherpesvirus 5, above 100 µg/mL; in the experiment on Human alphaherpesvirus 1 [13] it was above 100 µg/mL. The CC50 in the experiment with HEL [5], with HEL [6], with HEL [7] and in the experiment with HEL [8] was above 100 µg/mL in each case. In addition, the SI in [9] is recorded as above 83; in experiment [10], 0; in experiment [11], 0; in experiment [12], 0; in experiment [14] it was 0.
Take `OCC(CO)CCn1cnc2cc(Cl)c(Cl)nc21`: the EC50 in the experiment with Human alphaherpesvirus 1 [4] is above 100 µg/mL; with Human alphaherpesvirus 2 [1] it was above 100 µg/mL; in the experiment with Human betaherpesvirus 5, above 100 µg/mL; with Human alphaherpesvirus 3 [16], 11.7 µg/mL (≈ 40.3 µM). The CC50 in the experiment on HEL [15], with HEL [5], in the experiment on HEL [6] and in the experiment on HEL [7] was above 100 µg/mL each time. In addition, the SI in experiment [17] was above 8.5; in [9], 0; in [10], 0; in experiment [11] it was 0.
`OCC(CO)CCn1cnc2nc(Cl)c(Cl)cc21`: the EC50 in the experiment on Human alphaherpesvirus 1 [4] is above 100 µg/mL; in the experiment on Human alphaherpesvirus 2 [1], above 100 µg/mL; in the experiment on Human betaherpesvirus 5, above 100 µg/mL; with Human alphaherpesvirus 3 [16], 49.8 µg/mL (≈ 172 µM). Also, the CC50 in the experiment on HEL [5], in the experiment with HEL [6] and with HEL [7] was above 100 µg/mL throughout. Further, the SI in experiment [17] is above 2; in experiment [9], 0; in experiment [10], 0; in [11], 0.
Regarding `CC(=O)OCC(CCn1cnc2cc(Cl)c(Cl)nc21)COC(C)=O`, in the experiment on Human betaherpesvirus 5, the midpoint of the response, the EC50, lay at 132 µg/mL (≈ 353 µM).
